This is an account of results in PubChem BioAssay AID179 (DTP/NCI, 2004).

This assay concerns CEM cells HIV-1 protection, formazan growth assay. Put plainly: NCI AIDS Antiviral Assay. Conditions: for IC50: measured here: growth of uninfected CEM cells. The method in brief: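 Protection of CEM cells against HIV-1 measured as cell growth via soluble formazan read-out, with five concentrations tested on both infected and uninfected cells; failure to protect may reflect toxicity.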

Active and inactive are the calls of the source.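 How the source made its calls: active means compounds giving half or more protection of infected cells from virus-caused growth loss, again on retest; inactive means the rest.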 Where a SMILES comes first, the peptide text is derived from it. The star is where a group is joined. Cbz = O=C(OCc1ccccc1)* Bounds are passed on as bounds.

On to `Cc1cc(O)c2c(c1)C(C13Cc4cc(O)c5c(c4[C@H]1C=C[C@@H](O)[C@H]3O)C(=O)c1cccc(O)c1C5=O)OC2=O` (stereo partly drawn), for which the result was inactive. For `CC1(C)C(=O)C(O)=CC2C1=CCC1C2(C)C(=O)CC2(C)C(C(C)(O)C(=O)CC(O)C(C)(C)O)C(O)CC12C` (stereo not drawn), the EC50 was greater than 20 µM and the 50% inhibitory concentration (IC50) was determined as 1.32 µM. Taken in the same sequence, the figures for `C(=N\NC1=NCCN1)/c1ccc2ccccc2c1` were greater than 200 µM and 22.9 µM. `CCOC(=O)C1(c2ccccc2)CCN(CC(=O)c2ccccc2)CC1`: the EC50 was greater than 102 µM and the 50% inhibitory concentration (IC50) was determined as 56.2 µM. As to `CCN(CC)CCCC(C)Nc1ccnc2cc(Cl)ccc12` (stereo not drawn), the outcome was inactive.

As to `Nc1nc(N)c(CCCCc2ccccc2)c(C=O)n1`, the outcome was inactive. As for `COc1cccc(CC2Cc3ccccc3CC(=O)N2)c1` (stereo not drawn), the EC50 was greater than 200 µM and the half-maximal inhibitory concentration (IC50) stood at 38 µM.

In the case of `Nc1nc(Cl)c(N)c(NCC2(CO)CC(O)C2)n1` (stereo not drawn), the EC50 was greater than 200 µM and the IC50 was greater than 200 µM. On to `COc1cccc(OC)c1C1ON=C(c2ccccc2)N1C12CC3CC(CC(C3)C1)C2` (stereo not drawn), for which the EC50 was greater than 200 µM and the IC50 amounted to 141 µM. Taken in the same sequence, the figures for `CCc1c(Cc2ccccc2)n(COCCSc2ccccc2)c(=O)[nH]c1=O` were 3.24 µM and 26.9 µM. Take `CC1CCCc2c1n[nH]c2CC1CC(=O)NC(=O)C1` (stereo not drawn): the EC50 was greater than 200 µM and the half-inhibitory concentration (IC50) was greater than 200 µM. Take `CCSSC1(C)C(=O)N2CCCC2C(=O)N1C` (stereo not drawn): the EC50 was greater than 200 µM and the concentration for half-maximal inhibition (IC50) is 11.5 µM.

With `CC(CCc1nc2ccccc2[nH]1)C1CCC2C3C(C[C@H](O)[C@]12C)[C@@]1(C)CC[C@@H](O)C[C@H]1C[C@H]3O` (stereo partly drawn), the EC50 is greater than 50.1 µM and the half-maximal inhibitory concentration (IC50) was 10 µM. On to `O=C(Nc1ccc(Cl)cc1)C(=O)C(C(=O)c1ccccc1-c1ccccc1)C1OC(=O)c2ccccc21` (stereo not drawn), for which the EC50 was greater than 70.8 µM and the IC50 worked out at 13.2 µM. Consider `COc1c2occc2c(S(=O)(=O)O)c2ccc(=O)oc12`, for which the EC50 is greater than 302 µM and the half-maximal inhibitory concentration (IC50) was greater than 302 µM. Turning to `N#Cc1cc2c(n(C3OC(CO)C(O)C(O)C3O)c1=S)CCC2` (stereo not drawn), the EC50 was greater than 200 µM and the IC50 is greater than 200 µM. With `COC(=O)c1cc(C(=CCC[C@H]2CC[C@@]3(C)[C@@H](CC[C@H]4[C@@H]3CC[C@]3(C)[C@@H](C(C)CCCC(C)C)CC[C@@H]43)C2)c2cc(F)c(OC)c(C(=O)OC)c2)cc(F)c1OC` (stereo partly drawn), the EC50 was greater than 200 µM and the 50% inhibitory concentration (IC50) is greater than 200 µM. As to `N#CCCN(CCC#N)C(=O)Nc1cccc2ccccc12`, the outcome was inactive. With `CCOc1ccc(/C=C(\C#N)c2cccc(Cl)c2)cc1`, the EC50 is greater than 200 µM and the IC50 came to 8.51 µM. Turning to `C[Si](C)(C)[C@@]1([Se]c2ccccc2)CC[C@@H]1C(=O)c1ccccc1`, the EC50 is greater than 13.5 µM and the IC50 was greater than 13.5 µM. Consider `CCOC(=O)CNC(=O)C(NC(=O)C1CCCN1C(=O)OCc1ccccc1)C(C)CC` (stereo not drawn) (Cbz-Pro-Ile-Gly-OEt; configuration not given here), for which the EC50 is greater than 562 µM and the IC50 worked out at 34.7 µM. Take `CN1CC2CN(Cc3ccccc3)CCN2c2cccnc21` (stereo not drawn): the EC50 was greater than 200 µM and the IC50 came out at 81.3 µM. For the molecule `COc1ccc(P2(=S)Oc3ccccc3-c3ccccc3O2)cc1`, the EC50 is greater than 0.2 µM and the IC50 came out at 0.0631 µM. In the case of `COc1ccc([C@H]2Oc3cc(OCc4ccccc4)c(O)cc3[C@@H]2C)c(OC)c1`, the EC50 is greater than 200 µM and the IC50 was 38.9 µM. The like results for `CCN=C(NC(=O)c1ccc(Cl)cc1)SCSC(=NCC)NC(=O)c1ccc(Cl)cc1` were, in that order, greater than 200 µM and 72.4 µM.

As to `O=[N+]([O-])c1ccc(CCc2ccc([N+](=O)[O-])cc2S(=O)(=O)O)c(S(=O)(=O)O)c1`, the outcome was inactive.

For the molecule `O=S(=O)(O)c1cc(N=Nc2ccc(O)cc2)ccc1/C=C/c1ccc(N=Nc2ccc(O)cc2)cc1S(=O)(=O)O`, the EC50 is greater than 50.1 µM and the IC50 came out at 45.7 µM.

For `CC(C)[Si]1(C(C)C)OCC2OC(n3ccc(=O)[nH]c3=O)C(O)(CO)C2O[Si](C(C)C)(C(C)C)O1` (stereo not drawn), the EC50 is greater than 200 µM and the half-inhibitory concentration (IC50) is 20.9 µM.

Consider `O=c1[nH]c2ccc(O)cc2o1`, for which the EC50 was greater than 200 µM and the concentration for half-maximal inhibition (IC50) was greater than 200 µM. Consider `O=c1c(SCc2ccc(Cl)c(Cl)c2)c(SCc2ccc(Cl)c(Cl)c2)cnn1-c1ccccc1`, for which the EC50 was greater than 6.76 µM and the IC50 was greater than 6.76 µM. Regarding `CC(C)(C)c1cc2c(c(C(C)(C)C)c1)OC(C1Nc3cc(C(C)(C)C)cc(C(C)(C)C)c3O1)N2` (stereo not drawn), the EC50 was greater than 100 µM and the IC50 was 21.4 µM. The like results for `CN(C)CCCNC(=O)c1cc(NC(=O)c2cc(NC(=O)c3cc(NC(=O)c4ccc(C(=O)Nc5cc(C(=O)Nc6cc(C(=O)Nc7cc(C(=O)NCCCN(C)C)n(C)c7)n(C)c6)n(C)c5)cc4)cn3C)cn2C)cn1C` were, in that order, greater than 100 µM and greater than 100 µM.

`COc1ccc2c(c1)CC1Cc3ccccc3CCN1C2` (stereo not drawn): the EC50 was greater than 200 µM and the IC50 worked out at 39.8 µM. In the case of `CC(C)(C)c1ccc(SS(=O)(=O)c2ccc(C(C)(C)C)cc2)cc1`, the EC50 was 20 µM and the concentration for half-maximal inhibition (IC50) stood at 22.9 µM. With `O=[N+]([O-])c1cccnc1-n1cnc2ccccc21`, the EC50 was greater than 200 µM and the IC50 was greater than 100 µM. The like results for `COC(=O)c1ccc(C(=O)OC)c2nc3cc(Cl)ccc3nc12` were, in that order, greater than 30.2 µM and greater than 30.2 µM. The like results for `CCOc1cc(C=Nc2ccc(Oc3ccc(Cl)cc3)c(Cl)c2)ccc1O` were, in that order, greater than 200 µM and 29.5 µM. In the case of `Cc1cc[n+]2n1CC(O)C2` (stereo not drawn), the result was inactive.

As to `O=C(CCSCCC(=O)NNc1ccccc1)NNc1ccccc1`, the EC50 is greater than 20 µM and the IC50 is greater than 20 µM.

`Cc1ccc2nc(N)[nH]c(=O)c2c1Sc1ccncc1`: the EC50 was greater than 363 µM and the concentration for half-maximal inhibition (IC50) amounted to 1.35 µM. As for `CCOC(=O)c1sc2[n+](c1C)C(=O)/C(=C/c1ccc([N+](=O)[O-])cc1)S2`, the EC50 was greater than 200 µM and the IC50 is 20.4 µM. Take `CCOc1cc2c(cc1O)C(O)C[C@@H]1[C@@H]2CC[C@]2(C)[C@@H](O)CC[C@@H]12` (stereo partly drawn): the EC50 was greater than 200 µM and the IC50 is 0.0776 µM. For `CN(C)CCN1C(=O)C2C3CCC(C)(O3)C2C1=O` (stereo not drawn), the EC50 was greater than 200 µM and the IC50 is greater than 200 µM. As to `O=C(c1ccc(Cl)cc1)N(C(=S)OCc1ccccn1)c1ccccc1`, the EC50 was greater than 200 µM and the concentration for half-maximal inhibition (IC50) is 83.2 µM. Take `CCCCCCCCCCCCNC1=C(Cl)C(=O)C(=O)c2cccnc21`: the 50% effective concentration (EC50) turned out to be 53.7 µM and the IC50 worked out at 174 µM. Taken in the same sequence, the figures for `N#CC(c1ccccc1)[P+](c1ccccc1)(c1ccccc1)c1ccccc1` (stereo not drawn) were greater than 200 µM and 141 µM.

As to `COc1cc2c(cc1OC)C(Cl)C(c1cc(OC)c(OC)c(OC)c1)=C2Cl` (stereo not drawn), the result was inactive. Take `OC1OC(c2ccc[nH]2)C(F)(F)C(F)(F)C1(F)F` (stereo not drawn): the EC50 was greater than 200 µM and the IC50 is 67.6 µM. The like results for `CN1CCCCCC(=N\O)/C(=N/O)CCCCC1` were, in that order, greater than 977 µM and greater than 977 µM. As to `CNc1nnnn1C1OC(CO)C(O)C1O` (stereo not drawn), the EC50 was greater than 1070 µM and the IC50 is greater than 1070 µM.

The term EC50 denotes the concentration giving half of the maximal effect. One may read the IC50 as the midpoint of a concentration-inhibition curve. Low values mean higher potency, high ones lower potency.
